Assay results reported in patent US6461997B1, “Triazole sulfones having herbicidal activity” (Monsanto Technology LLC, priority 1999, dated 2002).

Assays:
SORVU (shattercane) = experiment: Pre-emergence herbicidal activity, warm season; format: in vivo, Sorghum vulgare; conditions: GR80 = lowest tested rate (300, 100, 30, 10 g/ha) with 80% or greater inhibition; approx. 14 days after treating; 30/21° C.
In short: (§1)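 GR80 values derive from percent inhibition relative to untreated plants, read roughly 14 days after sowing and pre-emergence soil-surface treatment (compound in 50:50 acetone/water; rates typically 10, 30, 100, 300 g/ha). Warm-season weeds grew at 30/21° C day/night, cool-season ones at 18/13° C; an asterisk marks activity without reaching 80% at the highest rate.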

[1] = test system: VERPE (creeping speedwell); experiment: Pre-emergence herbicidal activity, cool season; format: in vivo, Veronica persicaria; conditions: lowest tested rate with 80% or greater inhibition; rates 300, 100, 30, 10 g/ha; about 14 days
In short: as §1

DATST (jimsonweed) = experiment: Pre-plant incorporated (PPI) herbicidal activity, warm season; format: in vivo, Datura stramonium; conditions: for Percent inhibition DATST: PPI application; for PPI activity (GR80) DATST: pre-plant incorporated, GR80 = lowest tested rate with 80% or greater inhibition, approx. 14 days after treating, 30/21° C.
Procedure: (§2) In another set of tests, the pre-plant incorporated (PPI) activity of compounds of this invention was evaluated on the same species as for the pre-emergence tests described above. In the PPI tests the following procedure, designed to simulate PPI application, was used.
(§3) A pre-prepared topsoil mixture (described above) was placed in a pot and compacted to a depth of 1.0 to 1.25 cm from the top of the pot. Seeds of each of several monocotyledonous and dicotyledonous annual plant species were placed on top of the soil. A sufficient quantity of soil to cover the seeds and level fill the pot was weighed into an open container. A known amount of the test compound was dissolved or suspended in an organic solvent and applied by spraying to this cover soil. The cover soil was thoroughly mixed to distribute the test compound throughout the cover soil, and was then applied as a cover layer over the seeds. Untreated soil was used as a cover layer for control pots. After treatment the plants were placed in a greenhouse where they received 0.64 cm of overhead irrigation. All subsequent watering consisted of a light overhead mist and/or subirrigation as needed for germination and growth. Tables 9 and 10 below relate to warm season plant species which were placed after pre-emergence treatment in a greenhouse with a 30/21° C. day/night temperature regime. Tables 11 and 12 below relates to cool season plant species placed after pre-emergence treatment in a greenhouse or growth chamber with an 18/13° C. day/night temperature regime. Only the compounds of Examples 1, 6, 8, 11, 13 and 15-20 were included in PPI tests.
(§4) Approximately 14 days after planting and treating, the plants were observed and herbicidal efficacy recorded as percent inhibition by comparison with untreated plants.

ECHCG (barnyardgrass) = experiment: as above; format: in vivo, Echinochloa crus-galli; conditions: for Percent inhibition ECHCG: PPI application; for PPI activity GR80, ECHCG: pre-plant incorporated, lowest tested rate with 80% or greater inhibition, about 14 days
Procedure: as §2, §3, §4

[2] = test system: SORHA (johnsongrass (seedling)); experiment: as above; format: in vivo, Sorghum halepense; conditions: for Percent inhibition SORHA: PPI application; for PPI activity GR80, SORHA: pre-plant incorporated, lowest tested rate with 80% or greater inhibition, about 14 days
Procedure: as §2, §3, §4

POLCO (wild buckwheat) = experiment: Pre-plant incorporated (PPI) herbicidal activity, cool season; format: in vivo, Polygonum convolvulus; conditions: for Percent inhibition POLCO: weed, PPI application; for PPI activity GR80, POLCO: pre-plant incorporated, lowest tested rate with 80% or greater inhibition, about 14 days
Procedure: as §2, §3, §4

ALOMY (blackgrass) = experiment: Post-emergence herbicidal activity, cool season; format: in vivo, Alopecurus myosuroides; conditions: abraded plants sprayed at 300, 100, 30 and 10 g/ha; about 14 days after treatment
Procedure: (§5) In another set of tests, the post-emergence activity of compounds of this invention was evaluated on the cool season species listed above. The following procedure was used.
(§6) A pre-prepared topsoil mixture (described above) was placed in a pot and compacted to a depth of 1.0 to 1.25 cm from the top of the pot. Seeds of each of several monocotyledonous and dicotyledonous annual plant species were placed on top of the soil. The seeds were covered with a mixture of 50% topsoil and 50% Rediearth™ in sufficient quantity to level-fill the pots. The pots were then placed on a greenhouse bench and subirrigated as needed.
(§7) When plants growing from the seeds had emerged and reached a suitable growth stage for post-emergence treatment, typically 9 to 14 days after planting, above-ground parts of the plants were subjected to a pre-treatment involving abrasion to create greater opportunity for foliar uptake of subsequently applied compounds. Abrasion was performed using garnet 200w particles applied with a Sears Craftsman hand-held sandblaster operated at approximately 850 kPa (50 psig) pressure.
(§8) A known amount of each test compound dissolved or suspended in an appropriate organic solvent was diluted with a 50:50 mix of acetone and water and applied to the plants by spraying with a standard spray nozzle in a spray volume of […] at a spray pressure of 511 kPa (30 psig). Only the compounds of Examples 1, 8-15 and 17-22 were included in post-emergence tests. Application rates for these compounds were 300, 100, 30 and 10 g/ha. Control plants were abraded but not sprayed.
(§9) After treatment the plants were placed in a greenhouse with an 18/13° C. day/night temperature regime and were subsequently watered as needed for growth. Approximately 14 days after treatment, the plants were observed and herbicidal efficacy recorded as percent inhibition by comparison with control plants. GR80 values were assigned for each compound as described above for the pre-emergence tests.

[3] = test system: AGRRE (quackgrass (seedling)); experiment: Post-emergence herbicidal activity, cool season; format: in vivo, Elymus repens; conditions: abraded plants sprayed at 300, 100, 30 and 10 g/ha; about 14 days after treatment
Procedure: as §5, §6, §7, §8, §9

Structure (SMILES)	Pre-emergence activity (GR80) SORVU (SORVU (shattercane))	Pre-emergence activity GR80, VERPE [1] [g/ha]	Percent inhibition DATST (DATST (jimsonweed); 30 g/ha) [%]	Percent inhibition DATST (DATST (jimsonweed); 100 g/ha) [%]	Percent inhibition DATST (DATST (jimsonweed); 300 g/ha) [%]	Percent inhibition DATST (DATST (jimsonweed); 900 g/ha) [%]	Percent inhibition ECHCG (ECHCG (barnyardgrass); 30 g/ha) [%]	Percent inhibition ECHCG (ECHCG (barnyardgrass); 100 g/ha) [%]	Percent inhibition ECHCG (ECHCG (barnyardgrass); 300 g/ha) [%]	Percent inhibition ECHCG (ECHCG (barnyardgrass); 900 g/ha) [%]	Percent inhibition SORHA ([2]; 30 g/ha) [%]	Percent inhibition SORHA ([2]; 100 g/ha) [%]	Percent inhibition SORHA ([2]; 300 g/ha) [%]	Percent inhibition SORHA ([2]; 900 g/ha) [%]	Percent inhibition POLCO (POLCO (wild buckwheat); 30 g/ha) [%]	Percent inhibition POLCO (POLCO (wild buckwheat); 100 g/ha) [%]	Percent inhibition POLCO (POLCO (wild buckwheat); 300 g/ha) [%]	Percent inhibition POLCO (POLCO (wild buckwheat); 900 g/ha) [%]	other results
CCN(CC)C(=O)n1cnc(S(=O)(=O)C(F)(F)F)n1 [Example 2]	300 g/ha	10	0	10	80	70	40	80	100	100	70	80	100	100	40	40	65	100	
CCN(CC)C(=O)n1cnc(S(=O)(=O)C(F)(F)Cl)n1 [Example 3]	100 g/ha	100	0	30	70	100	100	99	100	100	99	100	100	100	60	70	90	100	
CCN(CC)C(=O)n1cnc(S(=O)(=O)C(F)(F)C(F)(F)Br)n1 [Example 4]	* (activity observed, at least at highest rate, but <80% inhibition)	10	0	0	40	75	20	100	100	100	60	100	100	100	0	60	90	100	
CCN(CC)C(=O)n1cnc(S(=O)(=O)C(F)(F)C(=O)c2ccccc2)n1 [Example 6]	* (activity observed, at least at highest rate, but <80% inhibition)	300																	PPI activity (GR80) DATST (DATST (jimsonweed)): 300 g/ha; PPI activity GR80, ECHCG (ECHCG (barnyardgrass)): 100 g/ha; PPI activity GR80, SORHA [2]: 100 g/ha; PPI activity GR80, POLCO (POLCO (wild buckwheat)): 300 g/ha
CCN(CC)C(=O)n1cnc(S(=O)(=O)C(F)(F)SCc2ccccc2)n1 [Example 10]		100	0	0	20	100	0	50	100	100	0	50	100	100	0	60	80	95	Percent inhibition DATST (DATST (jimsonweed); 10 g/ha): 0%; Percent inhibition ECHCG (ECHCG (barnyardgrass); 10 g/ha): 0%; Percent inhibition SORHA ([2]; 10 g/ha): 0%; Percent inhibition POLCO (POLCO (wild buckwheat); 10 g/ha): 0%; Post-emergence activity GR80, ALOMY (ALOMY (blackgrass)): [empty]; Post-emergence activity GR80, AGRRE [3]: [empty]
CCN(CC)C(=O)n1cnc(S(=O)(=O)C(F)(F)C(F)(F)SC)n1 [Example 14]	* (activity observed, at least at highest rate, but <80% inhibition)	300																	Post-emergence activity GR80, ALOMY (ALOMY (blackgrass)): [empty]; Post-emergence activity GR80, AGRRE [3]: [empty]
CCN(CC)C(=O)n1cnc(S(=O)(=O)C(F)(F)C(F)F)n1 [Example 16]	100 g/ha	100	0	20	70	100	100	100	100	100	70	100	100	100	0	0	0	95	Percent inhibition DATST (DATST (jimsonweed); 10 g/ha): 0%; PPI activity (GR80) DATST (DATST (jimsonweed)): 100 g/ha; Percent inhibition ECHCG (ECHCG (barnyardgrass); 10 g/ha): 90%; PPI activity GR80, ECHCG (ECHCG (barnyardgrass)): 30 g/ha; Percent inhibition SORHA ([2]; 10 g/ha): 0%; PPI activity GR80, SORHA [2]: 10 g/ha; PPI activity GR80, POLCO (POLCO (wild buckwheat)): 100 g/ha; Percent inhibition POLCO (POLCO (wild buckwheat); 10 g/ha): 0%
